Source: article PMC6522510 (Nature Communications, 2019)
Where two headings read alike, the source gives them in different places.

Assays:
ML2 = test: Secondary dose-response HTS, Cell Titer Glo; format: cell-based, human; conditions: ML-2; for EC50: Homo sapiens
CMS = test: Secondary dose-response HTS, Cell Titer Glo; format: cell-based, human; conditions: for EC50: Homo sapiens, HTS
CHRF288-11 = test: Secondary dose-response HTS, Cell Titer Glo; format: cell-based, human; conditions: for EC50: Homo sapiens
U937 = test: Secondary dose-response HTS, Cell Titer Glo; format: cell-based, human; conditions: for EC50: Homo sapiens, U-937
MV4-11 [1] = test: Secondary dose-response HTS, Cell Titer Glo; format: cell-based, human; conditions: secondary high-throughput screen, MV4-11; for EC50: Homo sapiens, read-out: average effective concentration, MV4-11
MOLM-13 = test: Secondary dose-response HTS, Cell Titer Glo; format: cell-based, human; conditions: MOLM-13; for EC50: Homo sapiens
M07e = test: Secondary dose-response HTS, Cell Titer Glo; format: cell-based, human; conditions: for EC50: Homo sapiens, M-07e
CMK = test: Secondary dose-response HTS, Cell Titer Glo; format: cell-based, human; conditions: CMK; for EC50: Homo sapiens
MV4-11 [2] = test: cells; design: species or system AML cell lines (8); Secondary HTS, 10-point dose-response in triplicate, Cell Titer Glo viability, four-parameter fit EC50; conditions: Homo sapiens, MV4-11, 72 h, read-out: MV4-11
[3] = secondary high-throughput screen
[4] = secondary high-throughput screen, CMS
[5] = secondary high-throughput screen, CHRF288-11
[6] = secondary high-throughput screen, U937
[7] = secondary high-throughput screen, M07e
[8] = secondary high-throughput screen, […]
[9] = secondary high-throughput screen, read-out: average effective concentration, ML-2
[10] = read-out: average effective concentration, CMK
[11] = read-out: average effective concentration, CMS
[12] = HTS, secondary high-throughput screen, CHRF288-11, read-out: average effective concentration, CHRF288-11
[13] = secondary high-throughput screen, U937, read-out: average effective concentration, U937
[14] = secondary high-throughput screen, read-out: average effective concentration, MOLM-13
[15] = secondary high-throughput screen, M07e, read-out: average effective concentration, M07e
[16] = secondary high-throughput screen, CMS, read-out: average effective concentration, CMS
[17] = secondary high-throughput screen, read-out: average effective concentration, CMK

| Compound | average effective concentration, ML-2 (ML2; [3]) | average effective concentration, CMS (CMS; [4]) | average effective concentration, CHRF288-11 (CHRF288-11; [5]) | average effective concentration, U937 (U937; [6]) | average effective concentration, MV4-11 (MV4-11 [1]) | average effective concentration, MOLM-13 (MOLM-13; [3]) | average effective concentration, M07e (M07e; [7]) | EC50 (ML2; [9]) [nM] | EC50 (CHRF288-11; [12]) [nM] | EC50 (MV4-11 [2]) [nM] | EC50 (U937; [13]) [nM] | EC50 (MOLM-13; [14]) [nM] | EC50 (M07e; [15]) [nM] | further results |
| --- | --- | --- | --- | --- | --- | --- | --- | --- | --- | --- | --- | --- | --- | --- |
| N[C@@H]1C[C@H]1c1ccccc1 (racemic) [TRANYLCYPROMINE] | Inactive | Inactive | Inactive | Inactive | Inactive | Inactive | Inactive | – | – | – | – | – | – | – |
| [NH4+].[NH4+].[SH-].[SH-].[S]=[Mo]=[S] [AMMONIUM TETRATHIOMOLYBDATE] | Inactive | Inactive | Inactive | Inactive | Inactive | Inactive | Inactive | – | – | – | – | – | – | – |
| O=[As]O[As]=O (stereo not drawn) [ARSENIC TRIOXIDE] | Inactive | Inactive | Inactive | Inactive | Inactive | Inactive | – | – | – | – | – | – | – | average effective concentration, M07e (M07e; [8]): Inactive |
| N[C@@H]1CCCN(c2c(/C=C3\SC(=O)NC3=O)cccc2-c2ccccc2)C1 [AZD1208] | Inactive | Inactive | – | Inactive | Inactive | Inactive | Inactive | – | – | – | – | – | – | average effective concentration, CMK (CMK; [3]): Inactive |
| O=C(/C=C/c1cccc(S(=O)(=O)Nc2ccccc2)c1)NO [BELINOSTAT] | – | – | – | – | – | – | – | 350 | 240 | > 10000 | 170 | 270 | 190 | EC50 (CMK; [10]): 14 nM; EC50 (CMS; [11]): 250 nM |
| COc1cc2nc(N3CCCN(C)CC3)nc(NC3CCN(Cc4ccccc4)CC3)c2cc1OC [BIX 01294] | – | – | – | – | – | – | – | 3600 | 4400 | – | 2000 | 2500 | > 10000 | EC50 (CMS; [16]): > 10000 nM; EC50 (MV4-11 [1]): 3000 nM |
| C#Cc1cccc(Nc2ncnc3cc(OC)c(OCCCCCCC(=O)NO)cc23)c1 [CUDC-101] | – | – | – | – | – | – | – | 83 | 600 | > 10000 | 140 | 5600 | 190 | EC50 (CMK; [10]): 73 nM; EC50 (CMS; [11]): 780 nM |
| COc1ccc(-c2nc(N3CCOCC3)c3sc(CN(C)c4ncc(C(=O)NO)cn4)cc3n2)cn1 [CUDC-907, reference compound] | – | – | – | – | – | – | – | 1.7 | 0.89 | – | – | 0.447 | 0.7 | EC50 (ML2; secondary HTS, 72 h, average of triplicate, read-out: EC50 ML2): 2 nM; EC50 (CMK; 72 h, read-out: EC50 CMK): 2 nM; EC50 (CMK; [10]): 1.9 nM; EC50 (CMS; 72 h, read-out: EC50 CMS): 1 nM; EC50 (CHRF288-11; secondary HTS, 72 h, average of triplicate, read-out: EC50 CHRF288-11): 1 nM; EC50 (U937; secondary HTS, 72 h, average of triplicate, read-out: EC50 U937): 4 nM; EC50 (MOLM-13; secondary HTS, 72 h, average of triplicate, read-out: EC50 MOLM-13): 0.4 nM; EC50 (M07e; secondary HTS, 72 h, average of triplicate, read-out: EC50 M07e): 1 nM |
| N#CCNC(=O)c1ccc(-c2ccnc(Nc3ccc(N4CCOCC4)cc3)n2)cc1 [CYT-387] | – | – | – | – | – | – | – | > 10000 | 3800 | > 10000 | 7600 | 1200 | 270 | EC50 (CMK; [10]): 1800 nM; EC50 (CMS; [11]): 340 nM |
| Nc1ncnc2c1nc(Cl)n2[C@@H]1O[C@H](CO)[C@@H](O)[C@H]1O [Compound 8-CHLOROADENOSINE] | – | – | – | – | – | – | – | 2800 | 1200 | – | 1000 | 2200 | 1 | EC50 (CMS; [11]): 4400 nM; EC50 (MV4-11 [1]): 250 nM |
| NC1CC1c1cc(F)cc(F)c1OCc1ccccc1 (stereo not drawn) [Compound S2101] | Inactive | Inactive | Inactive | Inactive | Inactive | Inactive | Inactive | – | – | – | – | – | – | – |
| CSCC[C@@H](NC(=O)c1ccc(CNCc2cnc[nH]2)cc1-c1ccccc1C)C(=O)OCc1ccccc1 [FTI-2628] | Inactive | Inactive | Inactive | – | Inactive | Inactive | Inactive | – | – | – | – | – | – | average effective concentration, CMK (CMK; [3]): Inactive |
| CSCC[C@H](NC(=O)c1ccc(NC(=O)[C@@H](N)CS)cc1)C(=O)O [H-CYS-4-ABZ-MET-OH] | Inactive | Inactive | Inactive | – | Inactive | Inactive | Inactive | – | – | – | – | – | – | average effective concentration, CMK (CMK; [3]): Inactive |
| O=C(O)c1ccc(O)c2ncccc12 [IOX 1] | Inactive | Inactive | Inactive | Inactive | Inactive | Inactive | Inactive | – | – | – | – | – | – | – |
| CC(N[C@H]1C[C@@H]1c1ccccc1)c1ccc2c(c1)OCCO2 (stereo partly drawn) [LSD1-C76] | Inactive | Inactive | Inactive | Inactive | – | Inactive | Inactive | – | – | – | – | – | – | average effective concentration, CMK (CMK; [3]): Inactive |
| C1=C/COCc2cc(ccc2OCCN2CCCC2)Nc2nccc(n2)-c2cccc(c2)COC/1 [PACRITINIB] | – | – | – | – | – | – | – | 130 | 2400 | > 10000 | 280 | 310 | 6700 | EC50 (CMK; [10]): 5000 nM; EC50 (CMS; [11]): 2000 nM |
| CN(C)Cc1ccc(S(=O)(=O)n2ccc(/C=C/C(=O)NO)c2)cc1 [RESMINOSTAT] | – | – | – | – | – | – | – | 5000 | 4700 | > 10000 | 3500 | 2000 | 1100 | EC50 (CMK; [17]): 1700 nM; EC50 (CMS; [16]): 3100 nM |
| Nc1cc(F)ccc1NC(=O)/C=C/c1cnn(C/C=C/c2ccccc2)c1 [RGFP966] | – | – | – | – | – | – | – | > 10000 | 7300 | > 10000 | > 10000 | > 10000 | – | EC50 (CMK; [17]): 6000 nM; EC50 (CMS; [16]): 9300 nM; EC50 (M07e; secondary high-throughput screen, […], read-out: average effective concentration, M07e): 10000 nM |
| Fc1ccc(CNc2ncnc3ccc(F)cc23)cc1 [SPAUTIN-1] | Inactive | Inactive | Inactive | – | Inactive | Inactive | – | – | – | – | – | – | – | average effective concentration, CMK (CMK; [3]): Inactive; average effective concentration, M07e (M07e; [8]): Inactive |
| CC(=O)Nc1ccc(C(=O)Nc2ccccc2N)cc1 [TACEDINALINE] | – | – | – | – | – | – | – | > 10000 | > 10000 | > 10000 | > 10000 | 2200 | 4100 | EC50 (CMK; [17]): 6800 nM; EC50 (CMS; [16]): 9000 nM |
| SCH 51344 | Inactive | Inactive | Inactive | Inactive | – | Inactive | Inactive | – | – | – | – | – | – | average effective concentration, CMK (CMK; [3]): Inactive |
